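In this assay, cells in 96-well plates receive the compound at five concentrations for 48 hours. Endpoints are linearly interpolated between the surrounding concentrations. The concentration for 50% growth inhibition is given as GI50.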 Active and inactive are the calls of the source. Cut-off read from the data, not from the text of the source: active = GI50 up to about 1.1 µM and inactive = higher.

Consider 26 compounds from ChEMBL document CHEMBL1201862, “PubChem BioAssay data set” (2004).

Among the test systems are DMS-114; KM-20L2; DLD-1; RXF 631; DMS-273; XF498; M19-MEL; SNB-78; HOP-18.
Common to all, as to test: growth of human tumour cells (NCI), 48 h

As to `CN(O)C(=O)c1ccccc1`, the GI50 with DMS-114, in the experiment with KM-20L2, in the experiment on DLD-1, with RXF 631, in the experiment with DMS-273 and with XF498 was > 100 µM (inactive) in each case. For the same compound, the GI50 in the experiment with M19-MEL was > 100 µM (inactive).

In the case of `OCCN1CCN(CC/C=C2/c3ccccc3Sc3ccc(Cl)cc32)CC1`, the GI50 with DMS-114 was 16.4 µM (inactive); in the experiment on KM-20L2 it was 2.07 µM (inactive); in the experiment on SNB-78, 15.8 µM (inactive); in the experiment with DLD-1, 13.4 µM (inactive); with HOP-18, 1.5 µM (inactive); with DMS-273, 6.05 µM (inactive). In addition, the values for the GI50 in the experiment on XF498 and in the experiment with M19-MEL were 12.6 µM (inactive) and 1.94 µM (inactive), respectively.

Turning to `COc1ccc(-c2onc(-c3ccc([N+](=O)[O-])cc3)c2C2=NCCCN2)cc1`, the GI50 was 44.3 µM (inactive) in the experiment on KM-20L2; > 100 µM (inactive) in the experiment with SNB-78; > 100 µM (inactive) with DLD-1; 3.4 µM (inactive) with HOP-18; > 100 µM (inactive) in the experiment on XF498; > 100 µM (inactive) in the experiment with M19-MEL.

`Cc1cc2nc3c(=O)n(C)c(=O)nc-3n(-c3ccc(Cl)cc3)c2cc1C`: the GI50 was 3.1 µM (inactive) with DMS-114; 3.62 µM (inactive) with KM-20L2; 18.5 µM (inactive) in the experiment on SNB-78; 14.5 µM (inactive) in the experiment on DLD-1; 6.87 µM (inactive) with HOP-18; 5.62 µM (inactive) in the experiment with DMS-273. The GI50 in the experiment with XF498 was 1.29 µM (inactive); in the experiment with M19-MEL, 2.32 µM (inactive).

For `CCOC(=O)c1sc(Nc2cc(Cl)ccc2Cl)nc1C`, the GI50 with DMS-114 is 93.3 µM (inactive); with KM-20L2, 54.7 µM (inactive); in the experiment on SNB-78 it was > 100 µM (inactive); in the experiment with DLD-1, 44.7 µM (inactive); in the experiment on RXF 631, > 100 µM (inactive); in the experiment with HOP-18, > 100 µM (inactive). Further, the values for the GI50 in the experiment on XF498 and in the experiment on M19-MEL were 48.4 µM (inactive) and > 100 µM (inactive), respectively.

For the compound `C=C1C2Oc3ccccc3C1N(c1ccccc1)O2` (stereo not drawn), the GI50 is 23.3 µM (inactive) with DMS-114; 37.6 µM (inactive) with KM-20L2; 26.7 µM (inactive) in the experiment on DLD-1; 16 µM (inactive) in the experiment on RXF 631; > 10 µM (inactive) in the experiment on DMS-273; 17.4 µM (inactive) with XF498. Moreover, the GI50 in the experiment with M19-MEL was 42.7 µM (inactive).

As for `Nc1ccn(C2OC(CO)C(O)C2O)c(=O)n1` (stereo not drawn), the GI50 was 0.173 µM (active) with DMS-114; 64 µM (inactive) in the experiment with KM-20L2; 481 µM (inactive) in the experiment with DLD-1; 1.74 µM (inactive) in the experiment on DMS-273; 434 µM (inactive) in the experiment with XF498; 6.43 µM (inactive) with M19-MEL.

Consider `CCCCc1c2c(nc3c1CCCC3=O)C(=O)CCC2`, for which the GI50 with DMS-114, with KM-20L2, in the experiment with SNB-78, with DLD-1, in the experiment on HOP-18 and in the experiment with DMS-273 was > 100 µM (inactive) each time. The GI50 in the experiment on XF498 and in the experiment on M19-MEL was > 100 µM (inactive) in each case.

On to `CCCCCCCCCCNC(=S)OC`, for which the GI50 in the experiment on DMS-114 was 15.6 µM (inactive); in the experiment on KM-20L2, 32.7 µM (inactive); with SNB-78 it was 53.3 µM (inactive); with DLD-1, 36.8 µM (inactive); with RXF 631, 62.1 µM (inactive); with HOP-18 it was > 100 µM (inactive). The figures for the GI50 in the experiment with DMS-273 and in the experiment on M19-MEL were 51.5 µM (inactive) and 29 µM (inactive), respectively.

For `Cc1ccc(C)c(N2C(=O)C(=O)C(c3nc4ccccc4o3)/C(=N\NC(=O)c3ccccc3O)C2=O)c1` (stereo not drawn), the GI50 with DMS-114 is 20.1 µM (inactive); with KM-20L2, 41.1 µM (inactive); with SNB-78 it was 6.08 µM (inactive); with DLD-1 it was 28.9 µM (inactive); with HOP-18, 20.9 µM (inactive); in the experiment on DMS-273 it was 6.14 µM (inactive). For the same compound, the GI50 in the experiment on M19-MEL is 64.7 µM (inactive).

Regarding `Cc1cc(N(CCC#N)CCC#N)ccc1/C=C1/N=C(c2ccccc2)N(N)C1=O`, the GI50 in the experiment with DMS-114 is 75 µM (inactive); in the experiment on KM-20L2, > 100 µM (inactive); with DLD-1 it was > 100 µM (inactive); in the experiment on DMS-273 it was 89.1 µM (inactive); with XF498 it was > 100 µM (inactive); in the experiment with M19-MEL, > 100 µM (inactive).

On to `CCN(CC)CCCNC(=O)C1COc2cc(-c3cc(=O)c4ccccc4o3)ccc2O1` (stereo not drawn), for which the GI50 with DMS-114 is 25.4 µM (inactive); in the experiment on KM-20L2, 34.8 µM (inactive); in the experiment with SNB-78, > 100 µM (inactive); with DLD-1, 65.3 µM (inactive); in the experiment on RXF 631 it was 34.4 µM (inactive); with HOP-18 it was > 100 µM (inactive). The GI50 in the experiment on DMS-273 was 65.5 µM (inactive); in the experiment with M19-MEL, 20.9 µM (inactive).

As for `O=C(O)/C(Cl)=C(\Cl)C(=O)c1ccccc1`, the GI50 in the experiment with DMS-114, in the experiment on KM-20L2, in the experiment on SNB-78, in the experiment with DLD-1, with DMS-273 and in the experiment with XF498 was > 100 µM (inactive) each time. Moreover, in the experiment on M19-MEL, the GI50 is > 100 µM (inactive).

Turning to `CC(=O)OCc1cc(=O)n(C)c2c3c4c(cc12)c(C)cc(=O)n4CO3`, the GI50 with DMS-114 was 1.69 µM (inactive); with KM-20L2, 2.02 µM (inactive); in the experiment on SNB-78, 1.99 µM (inactive); in the experiment with DLD-1 it was 1.37 µM (inactive); in the experiment on HOP-18 it was 5.33 µM (inactive); in the experiment on DMS-273 it was 0.982 µM (active). Besides, the GI50 in the experiment with XF498 was 1.17 µM (inactive); in the experiment on M19-MEL, 1.43 µM (inactive).

Regarding `Cc1ccc([N+](=O)[O-])cc1NC(=O)C(=O)Cc1occc(=O)c1O`, the GI50 in the experiment on DMS-114, in the experiment on KM-20L2, in the experiment with DLD-1, in the experiment with HOP-18, with XF498 and with M19-MEL was > 100 µM (inactive) throughout.

Turning to `CC(=O)c1cc([N+](=O)[O-])ccc1OCC(=O)O`, the GI50 in the experiment with DMS-114, with KM-20L2, in the experiment with SNB-78, with DLD-1, in the experiment with RXF 631 and in the experiment on DMS-273 was > 100 µM (inactive) throughout. Moreover, in the experiment with M19-MEL, the GI50 is > 100 µM (inactive).

Turning to `CCOc1ccc2nc(NC(=O)C(=O)C(C(=O)c3ccccc3-c3ccccc3)C3OC(=O)c4ccccc43)sc2c1` (stereo not drawn), the GI50 in the experiment on DMS-114 was 14.8 µM (inactive); in the experiment with KM-20L2, 22.4 µM (inactive); with SNB-78, 18.6 µM (inactive); with DLD-1, 29.6 µM (inactive); in the experiment with DMS-273, 23.1 µM (inactive); with XF498, 21.3 µM (inactive). Moreover, the GI50 with M19-MEL is 19.1 µM (inactive).

For `O=C1OC(c2ccccc2)(c2ccccc2)c2ccc3ccc(F)cc3c21`, the GI50 was 9.23 µM (inactive) with DMS-114; 21.8 µM (inactive) with KM-20L2; > 100 µM (inactive) with DLD-1; 51.4 µM (inactive) in the experiment with RXF 631; 7.21 µM (inactive) with DMS-273; > 100 µM (inactive) in the experiment on XF498. The GI50 in the experiment with M19-MEL was 20.7 µM (inactive).

On to `C1=Nc2ccccc2Cn2nncc21`, for which the GI50 is > 100 µM (inactive) with KM-20L2; 57.3 µM (inactive) with DLD-1; 74.8 µM (inactive) in the experiment with HOP-18; > 10 µM (inactive) in the experiment with DMS-273; > 100 µM (inactive) with XF498; > 100 µM (inactive) in the experiment with M19-MEL.

With `CC(C)c1cccc2sc(NC(=O)C(=O)CC(=O)c3ccc(F)cc3)nc12`, the GI50 with DMS-114, in the experiment on KM-20L2, in the experiment with SNB-78, in the experiment on DLD-1, with RXF 631 and in the experiment on DMS-273 was > 100 µM (inactive) each time. In addition, the GI50 with XF498 and with M19-MEL was > 100 µM (inactive) throughout.

`CC1=C(C(=O)NCc2ccccc2)C(c2ccc(C3C(C(=O)NCc4ccccc4)=C(C)NC(C)=C3C(=O)NCc3ccccc3)cc2)C(C(=O)NCc2ccccc2)=C(C)N1`: the GI50 was 12.6 µM (inactive) with DMS-114; 13.9 µM (inactive) in the experiment on KM-20L2; 9.46 µM (inactive) in the experiment with SNB-78; 3.44 µM (inactive) in the experiment on DLD-1; 37.5 µM (inactive) with HOP-18; 9.42 µM (inactive) in the experiment with DMS-273. The figures for the GI50 in the experiment with XF498 and in the experiment with M19-MEL were 14.9 µM (inactive) and 8.39 µM (inactive), respectively.

On to `CC(Oc1ccc(OCC2CCCCC2)cc1)C(=O)N(CCO)CCO` (stereo not drawn), for which the GI50 with DMS-114, with SNB-78, in the experiment with HOP-18, in the experiment with DMS-273, in the experiment on XF498 and in the experiment on M19-MEL was > 100 µM (inactive) throughout.

Consider `Clc1ccc(C[P+](c2ccccc2)(c2ccccc2)c2ccccc2)cc1Cl`, for which the GI50 in the experiment on DMS-114 was 1.52 µM (inactive); with KM-20L2 it was 2.94 µM (inactive); with SNB-78 it was 25.8 µM (inactive); in the experiment with DLD-1, 9.2 µM (inactive); in the experiment with HOP-18, 2.1 µM (inactive); with DMS-273, 2.01 µM (inactive). For the same compound, the GI50 with XF498 is 1.32 µM (inactive); in the experiment on M19-MEL, 1.79 µM (inactive).

For `C=C(C=O)[C@@H]1C2OC(=O)C(=C)[C@@H]2CC(O)[C@@]1(C)CC` (stereo partly drawn), the GI50 in the experiment with DMS-114 is 14.8 µM (inactive); with KM-20L2 it was 12.2 µM (inactive); with SNB-78 it was 6.17 µM (inactive); in the experiment on DLD-1, 2.75 µM (inactive); in the experiment on RXF 631, 19.2 µM (inactive); with HOP-18, 26.1 µM (inactive). In addition, in the experiment with M19-MEL, the GI50 is 5.48 µM (inactive).

Take `NCCCNCCSP(=O)(O)O` [AMIFOSTINE]: the GI50 with DMS-114 was > 750 µM (inactive); in the experiment with KM-20L2, > 719 µM (inactive); in the experiment with SNB-78, > 750 µM (inactive); with DLD-1, > 750 µM (inactive); in the experiment with HOP-18, > 750 µM (inactive); in the experiment on DMS-273, > 750 µM (inactive). The GI50 in the experiment on XF498 was > 422 µM (inactive); in the experiment on M19-MEL it was 514 µM (inactive).

Consider `Cn1c(/C=C/CO)c(CO)c2c1C(=O)C=C(N1CC1)C2=O` [APAZIQUONE], for which the GI50 is < 0.01 µM (active) in the experiment with DMS-114; 0.0147 µM (active) with KM-20L2; 0.2 µM (active) in the experiment with SNB-78; 0.0152 µM (active) in the experiment on DLD-1; < 0.01 µM (active) in the experiment on HOP-18; < 0.01 µM (active) in the experiment with DMS-273. Moreover, the GI50 in the experiment on XF498 and with M19-MEL was < 0.01 µM (active) each time.
